# Assay results published in patent publication US20050208496A1, “Methods of testing for bronchial asthma or chronic obstructive pulmonary disease” (Genox Research, Inc., priority 2002, published 2005).
# Test system: respiratory epithelial cells
substance,measurement,setting,value
"IL-13: human IL-13 (Peprotech, Inc.) added to the medium at 50 ng/mL to stimulate respiratory epithelial cells","CH25H (32363_at) expression, fold change upon IL-13 stimulation","lot 1, Day 3, IMM method",8.9 fold
same,"CTSC (133_at) expression, fold change upon IL-13 stimulation","lot 1, Day 3, IMM method",4.7 fold
same,CXCL16 (44095_at) expression fold change,"lot 1, Day 3, IMM method",2.5 fold
same,"DD96 (31610_at) expression, fold change upon IL-13 stimulation","lot 1, Day 3, IMM method",11.4 fold
same,"DDIT3 (39420_at) expression, fold change upon IL-13 stimulation","lot 1, Day 3, IMM method",2.3 fold
same,"DKFZP564O0823 (41402_at) expression, fold change upon IL-13 stimulation","lot 1, Day 3, IMM method",6.7 fold
same,DKFZP566J091 (57197_at) expression fold change,"lot 1, Day 3, IMM method",8.2 fold
same,DPYD (38220_at) expression fold change upon IL-13 stimulation,"lot 1, Day 3, IMM method",7.5 fold
same,EMILIN-2 (51628_at) expression fold change,"lot 1, Day 3, IMM method",2.8 fold
same,"FABP4 (38430_at) expression, fold change upon IL-13 stimulation","lot 1, Day 3, IMM method",2.6 fold
same,FETUB (32620_at) expression fold change,"lot 1, Day 3, IMM method",4.1 fold
same,FLJ10261 (43366_at) expression fold change,"lot 1, Day 3, IMM method",8.2 fold
same,FLJ10261 (43963_at) expression fold change,"lot 1, Day 3, IMM method",6.6 fold
same,FLJ22693 (53777_at) expression fold change,"lot 1, Day 3, IMM method",2.1 fold
same,FUT10 (908_at) expression fold change upon IL-13 stimulation,"lot 1, Day 3, IMM method",4 fold
same,"G1P3 (1358_s_at) expression, fold change upon IL-13 stimulation","lot 1, Day 3, IMM method",7.1 fold
same,GBP5 (52615_at) expression fold change,"lot 1, Day 3, IMM method",2.5 fold
same,HDAC9 (37483_at) expression fold change upon IL-13 stimulation,"lot 1, Day 3, IMM method",3.1 fold
same,"HLA-F (37420_i_at) expression, fold change upon IL-13 stimulation","lot 1, Day 3, IMM method",3 fold
same,HLA-F (49203_f_at) expression fold change,"lot 1, Day 3, IMM method",3.1 fold
same,HS3ST1 (41556_s_at) expression fold change upon IL-13 stimulation,"lot 1, Day 3, IMM method",2.2 fold
same,"IFI27 (425_at) expression, fold change upon IL-13 stimulation","lot 1, Day 3, IMM method",4.5 fold
same,IFI27 (48864_at) expression fold change,"lot 1, Day 3, IMM method",4 fold
same,"IFI35 (464_s_at) expression, fold change upon IL-13 stimulation","lot 1, Day 3, IMM method",9.6 fold
same,"IFI44 (37641_at) expression, fold change upon IL-13 stimulation","lot 1, Day 3, IMM method",8 fold
same,"IFIT1 (915_at) expression, fold change upon IL-13 stimulation","lot 1, Day 3, IMM method",9.9 fold
same,"IFIT1 (32814_at) expression, fold change upon IL-13 stimulation","lot 1, Day 3, IMM method",7.6 fold
same,"IFIT4 (38584_at) expression, fold change upon IL-13 stimulation","lot 1, Day 3, IMM method",10.4 fold
same,"IFITM1 (675_at) expression, fold change upon IL-13 stimulation","lot 1, Day 3, IMM method",19.9 fold
same,IL13RA2 (1016_s_at) expression fold change upon IL-13 stimulation,"lot 1, Day 3, IMM method",5.1 fold
same,IL19 (47855_at) expression fold change,"lot 1, Day 3, IMM method",9.1 fold
same,"ILIRL1 (40322_at) expression, fold change upon IL-13 stimulation","lot 1, Day 3, IMM method",2.6 fold
same,IRF7 (36412_s_at) expression fold change,"lot 1, Day 3, IMM method",2.5 fold
same,"ISG15 (1107_s_at) expression, fold change upon IL-13 stimulation","lot 1, Day 3, IMM method",8.2 fold
same,"ISG15 (38432_at) expression, fold change upon IL-13 stimulation","lot 1, Day 3, IMM method",27.9 fold
same,"ISG20 (33304_at) expression, fold change upon IL-13 stimulation","lot 1, Day 3, IMM method",2.4 fold
same,"KIAA0537 (33787_at) expression, fold change upon IL-13 stimulation","lot 1, Day 3, IMM method",5.8 fold
same,KIAA1268 (57050_at) expression fold change,"lot 1, Day 3, IMM method",2.8 fold
same,KRT16 (601_s_at) expression fold change,"lot 1, Day 3, IMM method",4.6 fold
same,"LAMP3 (37168_at) expression, fold change upon IL-13 stimulation","lot 1, Day 3, IMM method",3.6 fold
same,LOC57118 (51085_at) expression fold change,"lot 1, Day 3, IMM method",3 fold
same,"LOC64116 (40456_at) expression, fold change upon IL-13 stimulation","lot 1, Day 3, IMM method",2.9 fold
same,MDA5 (51920_at) expression fold change,"lot 1, Day 3, IMM method",5.2 fold
same,"MMP7 (668_s_at) expression, fold change upon IL-13 stimulation","lot 1, Day 3, IMM method",2.2 fold
same,MX2 (879_at) expression fold change,"lot 1, Day 3, IMM method",8 fold
same,MXI (37014_at) expression fold change,"lot 1, Day 3, IMM method",10.6 fold
same,NK4 (39119_s_at) expression fold change upon IL-13 stimulation,"lot 1, Day 3, IMM method",2 fold
same,NOS2A (1948_f_at) expression fold change upon IL-13 stimulation,"lot 1, Day 3, IMM method",4.3 fold
same,"OAF (39695_at) expression, fold change upon IL-13 stimulation","lot 1, Day 3, IMM method",3.8 fold
same,OAS1 (38388_at) expression fold change upon IL-13 stimulation,"lot 1, Day 3, IMM method",5.5 fold
same,OAS1 (38389_at) expression fold change upon IL-13 stimulation,"lot 1, Day 3, IMM method",5.3 fold
same,OAS2 (39263_at) expression fold change upon IL-13 stimulation,"lot 1, Day 3, IMM method",2.9 fold
same,OSF-2 (1451_s_at) expression fold change upon IL-13 stimulation,"lot 1, Day 3, IMM method",8.8 fold
same,"PAK2 (1560_g_at) expression, fold change upon IL-13 stimulation","lot 1, Day 3, IMM method",−2.1 fold
same,PLS1 (39951_at) expression fold change,"lot 1, Day 3, IMM method",2.9 fold
same,PLSCR1 (32775_r_at) expression fold change upon IL-13 stimulation,"lot 1, Day 3, IMM method",2.6 fold
same,PMCH (32005_at) expression fold change,"lot 1, Day 3, IMM method",3.3 fold
same,PSMB9 (38287_at) expression fold change upon IL-13 stimulation,"lot 1, Day 3, IMM method",2.3 fold
same,RASGRP1 (33291_at) expression fold change,"lot 1, Day 3, IMM method",2.6 fold
same,RIG-1 (59215_at) expression fold change,"lot 1, Day 3, IMM method",8.7 fold
same,SCYB10 (431_at) expression fold change upon IL-13 stimulation,"lot 1, Day 3, IMM method",3.9 fold
same,SCYB11 (35061_at) expression fold change upon IL-13 stimulation,"lot 1, Day 3, IMM method",7.9 fold
same,"SECTM1 (41045_at) expression, fold change upon IL-13 stimulation","lot 1, Day 3, IMM method",5.2 fold
same,SERPINB4 (1549_s_at) expression fold change,"lot 1, Day 3, IMM method",67.4 fold
same,SERPINB6 (34789_at) expression fold change,"lot 1, Day 3, IMM method",2.6 fold
same,SIAT1 (41352_at) expression fold change upon IL-13 stimulation,"lot 1, Day 3, IMM method",13.1 fold
same,"SLC26A4, pendrin (36376_at) expression fold change","lot 1, Day 3, IMM method",25.6 fold
same,"SSI-1 (41592_at) expression, fold change upon IL-13 stimulation","lot 1, Day 3, IMM method",5.8 fold
same,STAT1 (32860_g_at) expression fold change,"lot 1, Day 3, IMM method",2.4 fold
same,STAT1 (33338_at) expression fold change,"lot 1, Day 3, IMM method",5.7 fold
same,TGFB2 (1262_s_at) expression fold change upon IL-13 stimulation,"lot 1, Day 3, IMM method",2 fold
same,TGM2 (38404_at) expression fold change upon IL-13 stimulation,"lot 1, Day 3, IMM method",5 fold
same,"TSPAN-3 (38612_at) expression, fold change upon IL-13 stimulation","lot 1, Day 3, IMM method",2.5 fold
same,UBE2L6 (40505_at) expression fold change upon IL-13 stimulation,"lot 1, Day 3, IMM method",4.2 fold
same,"UFD1L (811_at) expression, fold change upon IL-13 stimulation","lot 1, Day 3, IMM method",2.3 fold
same,WARS (38121_at) expression fold change upon IL-13 stimulation,"lot 1, Day 3, IMM method",2.9 fold
same,"diubiquitin (39959_at) expression, fold change upon IL-13 stimulation","lot 1, Day 3, IMM method",14.4 fold
same,AA045020 (44676_at) expression change,"lot 1, Day 7, AI",−2.9
same,AA053401 (56234_r_at) expression change,"lot 1, Day 7, AI",−3.5
same,AA059445 46293_at expression change,"lot 1, Day 7, AI",−3.7
same,AA059458 (65626_at) expression change,"lot 1, Day 7, AI",−3.4
same,AA079839 (69289_at) expression change,"lot 1, Day 7, AI",−2.2
same,AA151265 (60939_i_at) expression change,"lot 1, Day 7, AI",−2.6
same,AA151265 (60940_r_at) expression change,"lot 1, Day 7, AI",−5.9
same,AA160156 (47578_at) expression change,"lot 1, Day 7, AI",−4.2
same,AA203423 (65699_at) expression change,"lot 1, Day 7, AI",−2.6
same,AA369887 (87539_i_at) expression change,"lot 1, Day 7, AI",−3.6
same,AA398155 (48999_at) expression change,"lot 1, Day 7, AI",−2
same,AA400080 (57282_at) expression change,"lot 1, Day 7, AI",−4.2
same,AA422178 (53747_at) expression change,"lot 1, Day 7, AI",−2.8
same,AA428312 (83988_at) expression change,"lot 1, Day 7, AI",−2
same,AA442232 (59109_at) expression change,"lot 1, Day 7, AI",−2.3
same,AA456099 (59567_at) expression change,"lot 1, Day 7, AI",−2.2
same,AA772055 46104_at expression change,"lot 1, Day 7, AI",−3
same,AA779895 59136_at expression change,"lot 1, Day 7, AI",−2.4
same,ABCC5 1932_at expression change,"lot 1, Day 7, AI",−3.6
same,AF052107 38262_at expression change,"lot 1, Day 7, AI",−4.1
same,AI050855 (64285_at) expression change,"lot 1, Day 7, AI",−3.6
same,AI432375 (49819_at) expression change,"lot 1, Day 7, AI",−4.5
same,AI669212 55436_at expression change,"lot 1, Day 7, AI",−2.5
same,AI740855 (83076_at) expression change,"lot 1, Day 7, AI",−2
same,AI761647 40191_s_at expression change,"lot 1, Day 7, AI",−3
same,AI770116 (70124_at) expression change,"lot 1, Day 7, AI",−2.3
same,AI798733 (64163_at) expression change,"lot 1, Day 7, AI",−3.6
same,AI829641 (84270_at) expression change,"lot 1, Day 7, AI",−3.3
same,AI923984 33546_at expression change,"lot 1, Day 7, AI",−4.6
